According to article PMC4890880 (ACS infectious diseases, 2016):
Read-outs that look alike come from different tables or passages of the source.

Test system: HepG2-A16-CD81EGFP cells
Settings: for IC50: read-out: Tox_IC50, HepG2 cytotoxicity
[1] = 2nd round, maximal inhibition in dose series
[2] = sheet 2nd round, maximal inhibition in dose response

For `COc1ccc(S(=O)(=O)Nc2ccc3c(c2)C(=O)N([C@H](C)CO)C[C@@H](C)[C@@H](CN(C)S(=O)(=O)c2ccc(Cl)cc2)OCCCC[C@@H](C)O3)cc1` [BRD-K63849586-001-01-9], the “Tox_max_inhibition (%)” value [1] was 13% and the IC50 (2nd round, unit inferred) was > 10 µM.

For `CCCNC(=O)N1[C@H](C#N)[C@H](c2ccccc2-c2ccc(OC)cc2)[C@@H]1CO` [BRD-K19492647-001-01-0], the “Tox_max_inhibition (%)” value [1] was 9% and the IC50 (2nd round, unit inferred) was > 10 µM.

In the case of `CN1C(=O)c2cc(NC(=O)c3ccc(C(F)(F)F)cc3)ccc2OC[C@H]2O[C@@H](CC(=O)NCc3ccc4c(c3)OCO4)CC[C@H]21` [BRD-K38534329-001-01-1], the IC50 (sheet 2nd round) is reported as 5.49 µM and the “Tox_max_inhibition (%)” value [2] is reported as 57%.

For `O=C(Nc1ccc(F)cc1)N1C[C@@H]2[C@H](c3ccccc31)[C@@H](CO)N2Cc1ccccc1Cl` [BRD-K95406835-001-01-9], the IC50 (sheet 2nd round) was > 10 µM and the “Tox_max_inhibition (%)” value [2] was 4.68%.

`COc1ccc(-c2ccccc2[C@@H]2[C@@H](C#N)N(C(=O)NC3CCCCC3)[C@H]2CO)cc1` [BRD-K55353065-001-01-2] was tested, and the “Tox_max_inhibition (%)” value [1] was 11% and the IC50 (2nd round, unit inferred) was > 10 µM.

With `CC(C)NC(=O)N1[C@H](C#N)[C@H](c2ccc(C#CC3CCCCC3)cc2)[C@@H]1CO` [BRD-K48864121-001-01-0] the “Tox_max_inhibition (%)” value [1] was 54% and the IC50 (2nd round, unit inferred) was 9.68 µM.

For `COc1ccc2c3c(n(C)c2c1)[C@H](CO)N(Cc1ccc2c(c1)OCO2)CC31CN(C(=O)c2ccc3c(c2)OCO3)C1` [BRD-K24711160-001-01-3], the IC50 (sheet 2nd round) was > 10 µM and the “Tox_max_inhibition (%)” value [2] was 3%.

`COc1ccc(NC(=O)N2CCCCN3[C@H](CO)[C@H](c4ccc(C#Cc5ccccc5)cc4)[C@@H]3C2)cc1` [BRD-K83953444-001-02-5] was tested, and the IC50 (sheet 2nd round) was > 10 µM and the “Tox_max_inhibition (%)” value [2] was 55%.

For `C[C@@H]1CCCCO[C@@H](CN(C)C(=O)Nc2cccc3ccccc23)[C@H](C)CN([C@@H](C)CO)C(=O)c2cc(NC(=O)CCC(F)(F)F)ccc2O1` [BRD-K26887637-001-01-4], the IC50 (sheet 2nd round) was > 10 µM and the “Tox_max_inhibition (%)” value [2] was 11%.

`COc1ccc2c3c([nH]c2c1)[C@H](CO)N(C(C)=O)CC31CCN(C(=O)Nc2ccc(F)cc2F)CC1` [BRD-K07378992-001-01-6] was tested, and the IC50 (sheet "2nd round") was > 10 µM and the “Tox_max_inhibition (%)” value (sheet "2nd round") was 7%.

For `O=C(C[C@@H]1C[C@@H]2c3cc(NC(=O)c4ccc5c(c4)OCO5)ccc3O[C@@H]2[C@@H](CO)O1)NCc1ccc(Oc2ccccc2)cc1` [BRD-K16956545-001-01-0], the IC50 (sheet "2nd round") was > 10 µM and the “Tox_max_inhibition (%)” value (sheet "2nd round") was 5%.

With `C[C@@H]1CN([C@@H](C)CO)C(=O)Cc2cc(NC(=O)C3CCCCC3)ccc2O[C@H]1CN(C)Cc1ccc(Cl)c(Cl)c1` [BRD-K87663528-001-01-7] the IC50 (sheet "2nd round") was > 10 µM and the “Tox_max_inhibition (%)” value (sheet "2nd round") was 58%.

`CCCNC(=O)N1[C@H](C#N)[C@H](c2ccc(-c3cccc(OC)c3)cc2)[C@@H]1CO` [BRD-K80906650-001-01-7] was tested, and the IC50 (sheet "2nd round") was > 10 µM and the “Tox_max_inhibition (%)” value (sheet "2nd round") was 45%.

`C[C@@H]1CN([C@H](C)CO)C(=O)c2cc(NC(=O)Nc3ccc4c(c3)OCO4)ccc2O[C@@H](C)CCCCO[C@H]1CN(C)S(=O)(=O)c1ccccc1` [BRD-K54383078-001-01-5] was tested, and the IC50 (sheet 2nd round) was > 10 µM and the “Tox_max_inhibition (%)” value [2] was 5.48%.

For `C[C@H](CO)N1C[C@H](C)[C@@H](CN(C)S(=O)(=O)c2ccccc2)OCCCC[C@H](C)Oc2ccc(NC(=O)Nc3ccc4c(c3)OCO4)cc2C1=O` [BRD-K78605373-001-01-5], the “Tox_max_inhibition (%)” value [1] was 10% and the IC50 (2nd round, unit inferred) was > 10 µM.

With `CCCNC(=O)N1[C@H](C#N)[C@H](c2ccc(C#Cc3ccc(F)cc3)cc2)[C@@H]1CO` [BRD-K61371184-001-01-2] the IC50 (sheet "2nd round") was > 10 µM and the “Tox_max_inhibition (%)” value (sheet "2nd round") was 22%.

With `C[C@@H]1CN([C@@H](C)CO)C(=O)c2cc(NC(=O)Nc3ccc4c(c3)OCO4)ccc2O[C@@H](C)CCCCO[C@H]1CN(C)S(=O)(=O)c1ccccc1` [BRD-K69357983-001-01-6] the “Tox_max_inhibition (%)” value [1] was 9% and the IC50 (2nd round, unit inferred) was > 10 µM.

`COc1ccc(-c2ccc([C@H]3[C@@H](C#N)N(C(=O)NC(C)C)[C@H]3CO)cc2)cc1` [BRD-K15519105-001-01-9] was tested, and the IC50 (sheet "2nd round") was > 10 µM and the “Tox_max_inhibition (%)” value (sheet "2nd round") was 38%.

`CO[C@@H]1CN(C)C(=O)c2ccc(NC(=O)c3ccc4c(c3)OCO4)cc2OC[C@@H](C)N(Cc2ccc3c(c2)OCO3)C[C@H]1C` [BRD-K38901607-001-01-5] was tested, and the IC50 (sheet "2nd round") was > 10 µM and the “Tox_max_inhibition (%)” value (sheet "2nd round") was 11%.

For `COc1ccccc1-c1ccc2c(c1)[C@@H]1[C@@H](CCN1C(=O)C1CCC1)[C@H](CO)N2` [BRD-K72492940-001-01-8], the IC50 (sheet 2nd round) was > 10 µM and the “Tox_max_inhibition (%)” value [2] was 18%.

In the case of `COc1ccc2c3c([nH]c2c1)[C@H](CO)N(S(C)(=O)=O)CC31CCN(C(=O)Nc2ccccc2)CC1` [BRD-K47463456-001-01-7], the IC50 (sheet "2nd round") is reported as > 10 µM and the “Tox_max_inhibition (%)” value (sheet "2nd round") is reported as 13%.

With `COc1ccc2c3c([nH]c2c1)[C@H](CO)N(C(C)=O)CC31CN(Cc2ccccc2Cl)C1` [BRD-K02242562-001-01-9] the IC50 (sheet 2nd round) was > 10 µM and the “Tox_max_inhibition (%)” value [2] was 3.51%.

`CCCC(=O)N1CCC2(CC1)CN(S(=O)(=O)c1ccc(C)cc1)[C@@H](CO)c1[nH]c3cc(OC)ccc3c12` [BRD-K73703617-001-01-9] was tested, and the “Tox_max_inhibition (%)” value [1] was 12% and the IC50 (2nd round, unit inferred) was > 10 µM.

In the case of `C[C@@H]1CCCCO[C@H](CN(C)S(=O)(=O)c2ccccc2)[C@@H](C)CN([C@@H](C)CO)C(=O)c2cc(NC(=O)Nc3ccc4c(c3)OCO4)ccc2O1` [BRD-K94107458-001-01-0], the IC50 (sheet "2nd round") is reported as > 10 µM and the “Tox_max_inhibition (%)” value (sheet "2nd round") is reported as 5%.

With `COc1ccc2c3c([nH]c2c1)[C@@H](CO)N(S(C)(=O)=O)CC31CCN(C(=O)Nc2ccccc2)CC1` [BRD-K31411295-001-01-9] the IC50 (sheet "2nd round") was > 10 µM and the “Tox_max_inhibition (%)” value (sheet "2nd round") was 17%.

For `COc1ccc2c3c([nH]c2c1)[C@H](CO)N(C(C)=O)CC31CCN(C(=O)Nc2ccccc2F)CC1` [BRD-K30973842-001-02-5], the IC50 (sheet 2nd round) was > 10 µM and the “Tox_max_inhibition (%)” value [2] was 14%.

In the case of `O=C(Nc1ccccc1F)N1CCCCN2[C@H](CO)[C@@H](c3ccc(/C=C/c4ccccc4)cc3)[C@H]2C1` [BRD-K46850496-001-01-8], the IC50 (sheet 2nd round) is reported as > 10 µM and the “Tox_max_inhibition (%)” value [2] is reported as 11%.

`C[C@@H]1CN([C@@H](C)CO)C(=O)c2cc(N(C)C)ccc2O[C@@H](C)CCCCO[C@H]1CN(C)S(=O)(=O)c1ccc(F)cc1` [BRD-K72173400-001-01-7] was tested, and the IC50 (sheet 2nd round) was > 10 µM and the “Tox_max_inhibition (%)” value [2] was 6%.

`CN1C(=O)c2cc(NC(=O)c3cccc(F)c3)ccc2OC[C@H]2O[C@H](CC(=O)NCC3CCCCC3)CC[C@H]21` [BRD-K31618614-001-02-1] was tested, and the IC50 (sheet "2nd round") was > 10 µM and the “Tox_max_inhibition (%)” value (sheet "2nd round") was 27%.

For `COc1ccccc1C#Cc1ccc([C@H]2[C@@H](C#N)N(C(=O)C3CCCCC3)[C@H]2CO)cc1` [BRD-K87117984-001-01-1], the IC50 (sheet 2nd round) was 9.79 µM and the “Tox_max_inhibition (%)” value [2] was 57%.

With `CCCN1C[C@H](C)[C@@H](OC)CN(C)C(=O)c2cc(NC(=O)Nc3cccc(F)c3)ccc2OC[C@H]1C` [BRD-K02315086-001-01-0] the IC50 (sheet 2nd round) was > 10 µM and the “Tox_max_inhibition (%)” value [2] was 10%.

In the case of `CCCNC(=O)N1[C@H](C#N)[C@@H](c2ccccc2-c2cccc(C)c2)[C@@H]1CO` [BRD-K35047119-001-01-1], the “Tox_max_inhibition (%)” value [1] is reported as 7% and the IC50 (2nd round, unit inferred) is reported as > 10 µM.

For `OC[C@@H]1[C@H](c2ccc(-c3ccc(F)cc3)cc2)[C@@H](CNC2CCCC2)N1CCC(F)(F)F` [BRD-K76178468-001-01-1], the IC50 (sheet 2nd round) was > 10 µM and the “Tox_max_inhibition (%)” value [2] was 22%.

`COc1ccc(C#Cc2ccc3c(c2)O[C@@H](CN(C)C(=O)Nc2cccc(OC)c2)[C@@H](C)CN([C@@H](C)CO)S3(=O)=O)cc1` [BRD-K52609475-001-01-4] was tested, and the “Tox_max_inhibition (%)” value [1] was 6% and the IC50 (2nd round, unit inferred) was > 10 µM.
